The text below walks through data of patent US8324404B2, “3-thia-10-aza-phenanthrene derivatives” (Nycomed GmbH, priority 2004, dated 2012).

This assay addresses T1, PDE4B2 (Homo sapiens, UniProt Q07343).
T1 construct: made in house; host or cells: SF21 insect cells (baculovirus, pCR-Bac vector; virus made in SF9 cells)
Kind of assay: Inhibition of PDE4B2 activity, modified [3H]cAMP SPA (scintillation proximity assay) test. It counts as biochemical. The following applies: recombinant PDE4B2 (GB no. M97515) expressed in SF21 insect cells; 0.5 μM cAMP; 15 min at 37° C.; read-out: PDE4 Inhibition [measured as −logIC50 (mol/l)] (converted). The protocol: The PDE4B2 (GB no. M97515) was a gift of Prof. M. Conti (Stanford University, USA). It was amplified from the original plasmid (pCMV5) via PCR with primers Rb9 (5′-[…]-3′) and Rb10 (5′-[…]-3′) and cloned into the pCR-Bac vector (Invitrogen, Groningen, NL).
The recombinant baculovirus was prepared by means of homologous recombination in SF9 insect cells. The expression plasmids were cotransfected with Bac-N-Blue (Invitrogen, Groningen, NL) or Baculo-Gold DNA (Pharmingen, Hamburg) using a standard protocol (Pharmingen, Hamburg). Wt virus-free recombinant virus supernatants were selected using plaque assay methods. After that, high-titre virus supernatants were prepared by amplifying 3 times. PDE4B2 was expressed in SF21 cells by infecting 2×10^6 cells/ml with an MOI (multiplicity of infection) between 1 and 10 in serum-free SF900 medium (Life Technologies, Paisley, UK). The cells were cultured at 28° C. for 48-72 hours, after which they were pelleted for 5-10 min at 1000 g and 4° C.
The SF21 insect cells were resuspended, at a concentration of approx. 10^7 cells/ml, in ice-cold ([…]) homogenization buffer (20 mM Tris, pH 8.2, containing the following additions: 140 mM NaCl, 3.8 mM KCl, 1 mM EGTA, 1 mM MgCl2, 10 mM-mercaptoethanol, 2 mM benzamidine, 0.4 mM Pefablock, 10 μM leupeptin, 10 μM pepstatin A, 5 μM trypsin inhibitor) and disrupted by ultrasonication. The homogenate was then centrifuged for 10 min at 1000×g and the supernatant was stored at −80° C. until sub-sequent use (see below). The protein content was determined by the Bradford method (BioRad, Munich) using BSA as the standard.
PDE4B2 activity was inhibited by the said compounds in a modified SPA (scintillation proximity assay) test, supplied by Amersham Biosciences (see procedural instructions “phosphodiesterase [3H]cAMP SPA enzyme assay, code TRKO 7090”), carried out in 96-well microtitre plates (MTP's). The test volume is 100 μl and contains 20 mM Tris buffer (pH 7.4), 0.1 mg of BSA (bovine serum albumin)/ml, 5 mM Mg^2+, 0.5 μM cAMP (including about 50,000 cpm of [3H]cAMP), 1 μl of the respective substance dilution in DMSO and sufficient recombinant PDE (1000×g supernatant, see above) to ensure that 10-20% of the cAMP is converted under the said experimental conditions. […] After a preincubation of 5 min at 37° C., the reaction is started by adding the substrate (cAMP) and the assays are incubated for a further 15 min; after that, they are stopped by adding SPA beads (50 μl). […] After the beads have been sedimented (>30 min), the MTP's are analyzed in commercially available luminescence detection devices. The corresponding IC50 values of the compounds for the inhibition of PDE activities are determined from the concentration-effect curves by means of non-linear regression.

T1 sequence (Q07343 1-564 isoform Q07343-2): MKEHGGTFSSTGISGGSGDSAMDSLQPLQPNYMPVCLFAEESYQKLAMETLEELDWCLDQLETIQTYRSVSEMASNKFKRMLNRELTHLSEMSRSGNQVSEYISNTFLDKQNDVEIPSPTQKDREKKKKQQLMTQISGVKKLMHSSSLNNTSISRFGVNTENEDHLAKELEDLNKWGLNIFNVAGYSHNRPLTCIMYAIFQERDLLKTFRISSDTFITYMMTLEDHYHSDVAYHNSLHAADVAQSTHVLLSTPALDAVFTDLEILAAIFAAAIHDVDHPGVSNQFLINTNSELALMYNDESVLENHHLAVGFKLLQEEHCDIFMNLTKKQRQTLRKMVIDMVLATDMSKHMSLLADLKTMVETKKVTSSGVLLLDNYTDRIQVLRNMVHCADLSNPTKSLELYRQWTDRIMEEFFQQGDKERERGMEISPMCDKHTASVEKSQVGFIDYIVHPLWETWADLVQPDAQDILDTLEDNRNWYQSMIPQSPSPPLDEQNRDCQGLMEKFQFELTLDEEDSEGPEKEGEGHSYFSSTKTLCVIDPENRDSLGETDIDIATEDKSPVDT

As for `CCOc1cc2c(cc1OC)C(c1ccc(C(=O)N(C(C)C)C(C)C)cc1)=N[C@@H]1CC[S+]([O-])C[C@H]21` (single isomer, unassigned) [Compound 2], the IC50 was 145 nM. Then `CCOc1cc2c(cc1OC)C(c1ccc(C(=O)N(C(C)C)C(C)C)cc1)=N[C@@H]1CC[S+]([O-])C[C@H]21` (single isomer, unassigned) [Compound 3], with 3.31 nM. In the case of `CCOc1cc2c(cc1OC)C(c1ccc(C(=O)N(C(C)C)C(C)C)cc1)=N[C@@H]1CCSC[C@H]21` [Compound 1, 4-((4aR,10aR)-6-Ethoxy-7-methoxy-1,4,4a,10a-tetrahydro-2H-3-thia-10-aza-phenanthren-9-yl)-N,N-diisopropyl-benzamide] it was 0.724 nM.

Take `CCOc1cc2c(cc1OC)C(c1ccc(C(=O)N(C(C)C)C(C)C)cc1)=[N+]([O-])[C@@H]1CCS(=O)(=O)C[C@H]21` [Compound 5, 4-((4aR,10aR)-6-Ethoxy-7-methoxy-3,3-dioxo-10-oxy-1,2,3,4,4a,10a-hexahydro-3l^6-thia-10-aza-phenanthren-9-yl)-N,N-diisopropyl-benzamide]: the IC50 is 20 nM.
